This passage reports KLS-positive rate, Viable cell count and mCherry-positive rate results from US20230094952A1, “Method for Culturing Hematopoietic Stem Cells” (Sumitomo Pharma Co., Ltd., priority 2019, published 2023).

This assay relates to mouse long-term hematopoietic stem cells. The assay is described as follows: Reproducibility and concentration dependence test: 1-week culture of sorted Hoxb5-tri-mCherry mouse long-term hematopoietic stem cells, flow cytometry. In kind it is cell-based. Particulars: Table 4, day 7 of culture, n=2. Put shortly:
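Hoxb5-tri-mCherry+ LT-HSCs (Lin−c-Kit+Sca-1+Flk2−CD34−/lo CD150+) were sorted from mouse bone marrow at 10 cells/well into StemSpan SFEM with SCF and TPO. Cells were cultured with compound for 1 week at 37°C, 5% CO2. Flow cytometry then measured KLS and mCherry+ fractions and cell counts.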
On the technique in general: Flow cytometry measures light scatter and fluorescence of single cells or particles in a stream.

The compound `C[C@H]1[C@@H](OCC(F)(F)F)O[C@@H]2O[C@@]3(C)CC[C@H]4[C@H](C)CC[C@@H]1[C@@]24OO3` [Example 1-22, (3R,5aS,6R,8aS,9R,10S,12R,12aR)-3,6,9-Trimethyl-10-(2,2,2-trifluoroethoxy)decahydro-12H-3,12-epoxypyrano[4,3-j][1,2]benzodioxepine] had a KLS-positive rate (compound 0.1 μM) of 26.7%; a KLS-positive rate (compound 0.3 μM) of 87.0%; a KLS-positive rate (compound 1 μM) of 0.0%; a KLS-positive rate (compound 3 μM) of 50.0%; a KLS-positive rate (compound 10 μM) of 0.0%. This compound yielded a Viable cell count (compound 0.1 μM) of 216.0 cell; a Viable cell count (compound 0.3 μM) of 12.5 cell; a Viable cell count (compound 1 μM) of 0.5 cell; a Viable cell count (compound 3 μM) of 0.5 cell; a Viable cell count (compound 10 μM) of 0.5 cell. Further, the mCherry-positive rate is given as 90.9% (compound 0.1 μM); 100.0% (compound 0.3 μM); 0.0% (compound 1 μM); 50.0% (compound 3 μM); 0.0% (compound 10 μM).

Regarding `C[C@H]1[C@@H](OCc2ccccc2)O[C@@H]2O[C@@]3(C)CC[C@H]4[C@H](C)CC[C@@H]1[C@@]24OO3` [Example 1-24, (3R,5aS,6R,8aS,9R,10S,12R,12aR)-10-(benzyloxy)-3,6,9-trimethyldecahydro-12H-3,12-epoxypyrano[4,3-j][1,2]benzodioxepine], the KLS-positive rate is, setting by setting: (compound 0.1 μM) 73.6%; (compound 0.3 μM) 0.0%; (compound 1 μM) 0.0%; (compound 3 μM) 0.0%; (compound 10 μM) 0.0%. Moreover, the Viable cell count (compound 0.1 μM) is reported as 18.0 cell; the Viable cell count (compound 0.3 μM) is 0.5 cell; the Viable cell count (compound 1 μM) came out at 0.5 cell; the Viable cell count (compound 3 μM) is recorded as 0.0 cell; the Viable cell count (compound 10 μM) was 0.5 cell. The mCherry-positive rate by setting is: (compound 0.1 μM) 94.1%; (compound 0.3 μM) 50.0%; (compound 1 μM) 50.0%; (compound 3 μM) 0.0%; (compound 10 μM) 0.0%.

On to `C[C@H]1[C@H](Oc2ccccc2)O[C@@H]2O[C@@]3(C)CC[C@H]4[C@H](C)CC[C@@H]1[C@@]24OO3` [Example 1-25, (3R,5aS,6R,8aS,9R,10R,12R,12aR)-3,6,9-trimethyl-10-phenoxydecahydro-12H-3,12-epoxypyrano[4,3-j][1,2]benzodioxepine], for which the KLS-positive rate is, setting by setting: (compound 0.1 μM) 40.0%; (compound 0.3 μM) 0.0%; (compound 1 μM) 0.0%; (compound 3 μM) 50.0%; (compound 10 μM) 0.0%. Also, the Viable cell count (compound 0.1 μM) is on record as 181.5 cell; the Viable cell count (compound 0.3 μM) is reported as 0.5 cell; the Viable cell count (compound 1 μM) worked out at 0.0 cell; the Viable cell count (compound 3 μM) came out at 0.5 cell; the Viable cell count (compound 10 μM) is on record as 0.0 cell. Moreover, the mCherry-positive rate runs as follows: (compound 0.1 μM) 52.3%; (compound 0.3 μM) 0.0%; (compound 1 μM) 0.0%; (compound 3 μM) 50.0%; (compound 10 μM) 0.0%.
